Results published in publication PMC11904993, “Humanized Candida and NanoBiT Assays Expedite Discovery of Bdf1 Bromodomain Inhibitors With Antifungal Potential” (Advanced Science, 2025).
Where “and” joins values, the source holds several entries; their conditions need not be identical. Equal values may be shown once. Read-outs that look alike come from different tables or passages of the source.

Assays:
[1] = tested on: C. glabrata strains expressing WT and mutant Bdf1; assay: Growth inhibition in liquid media, C. glabrata lab strains; details: for EC50: Nakaseomyces glabratus, single experiments Exp1-3; for OD at 600 nm: Figure S4B
Experimental: (§1) Growth on Liquid Media with C. glabrata Lab Strains: Cells were grown at 30 °C in SC+M+C‐U medium (SC medium with 5 mM methionine, 0.25 mM cysteine, without uracil) to an OD600 of 0.5–0.8. […] Plates were incubated at 30 °C and OD600 was measured using a Multiskan FC Microplate Photometer (Thermo Fisher).

CgBdf1 BD2 [2] = target: CgBdf1 BD2 (Candida glabrata, UniProt Q6FWV7); assay: biochemical; assay type: binding, C. glabrata
CgBdf1 BD1 [3] = target: CgBdf1 BD1 (Candida glabrata, UniProt Q6FWV7); assay: HTRF assay, inhibition of H4ac4 peptide binding; set-up: species or system C. glabrata; details: single experiments Exp1-3; for pIC50 CgBD1: Fig 1D/2A original data
CgBdf1 BD1 [4] = assay: Histone peptide array assay; details: peptide array signal; for Raw data, WT / Normalized (0 to 100%), WT: CgBdf1 BD1 WT; for Normalized (0 to 100%), WT / Normalized (0 to 100%), YF mutant: mean of the two raw values; for Raw data, YF mutant / Normalized (0 to 100%), YF mutant: CgBdf1 BD1 YF mutant
Experimental: (§2) The array was prepared as described in the manufacturer's instructions. […] The array was then washed three times with binding buffer. Anti‐GST antibody (GE Healthcare) was used for the detection of GST‐tagged bromodomains.

CgBdf1 BD2 [5] = assay: Histone peptide array assay; details: peptide array signal; for Raw data, WT / Normalized (0 to 100%), WT: CgBdf1 BD2 WT; for Normalized (0 to 100%), WT / Normalized (0 to 100%), YF mutant: mean of the two raw values; for Raw data, YF mutant / Normalized (0 to 100%), YF mutant: CgBdf1 BD2 YF mutant
Experimental: as §2

[6] = tested on: C. glabrata expressing humanized Bdf1 (Brd4 BDs); assay: Growth inhibition in liquid media, humanized C. glabrata strains; details: Fig 3E, 50 µM, Exp 1-3
Experimental: as §1

CgBdf1 BD2 (Candida glabrata, UniProt Q6FWV7), sequence (Q6FWV7 entry or part of it): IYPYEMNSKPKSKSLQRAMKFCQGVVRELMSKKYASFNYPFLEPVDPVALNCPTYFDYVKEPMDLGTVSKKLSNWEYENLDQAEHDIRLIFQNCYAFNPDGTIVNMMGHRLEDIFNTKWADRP
CgBdf1 BD1 (Candida glabrata, UniProt Q6FWV7), sequence (Q6FWV7 entry or part of it): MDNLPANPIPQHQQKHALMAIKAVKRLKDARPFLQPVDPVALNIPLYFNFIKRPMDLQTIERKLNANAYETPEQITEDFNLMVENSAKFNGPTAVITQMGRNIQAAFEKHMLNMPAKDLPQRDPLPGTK

Compound	Raw data, WT (CgBdf1 BD1 [4]; first replicate column)	Normalized (0 to 100%), WT (CgBdf1 BD1 [4])	Raw data, WT (CgBdf1 BD1 [4]; second replicate column)	Raw data, YF mutant (CgBdf1 BD1 [4]; first replicate column)	Normalized (0 to 100%), YF mutant (CgBdf1 BD1 [4])	Raw data, YF mutant (CgBdf1 BD1 [4]; second replicate column)	Raw data, WT (CgBdf1 BD2 [5]; first replicate column)	Normalized (0 to 100%), WT (CgBdf1 BD2 [5])	Raw data, WT (CgBdf1 BD2 [5]; second replicate column)	Raw data, YF mutant (CgBdf1 BD2 [5]; first replicate column)	Normalized (0 to 100%), YF mutant (CgBdf1 BD2 [5])	Raw data, YF mutant (CgBdf1 BD2 [5]; second replicate column)	also measured
Cc1ccc(-c2nnc(C)c(NCc3ccccc3)n2)cc1 [Compound 24m, N‐benzyl‐6‐methyl‐3‐(p‐tolyl)‐1,2,4‐triazin‐5‐amine]													EC50 ([1]; read-out: pEC50 (WT BDF1), Fig 2D (converted), WT C. glabrata): > 251 µM; EC50 ([1]; read-out: pEC50 growth inhibition, Fig 2C (converted), strain BD1 Y-F): > 251 µM; EC50 ([1]; read-out: pEC50 growth inhibition, Fig 2C (converted), strain BD2 Y-F): > 251 µM; IC50 (CgBdf1 BD2 [2]; Fig 2C original data, analogs of 24, single experiments Exp1-3, read-out: pIC50 CgBD2 (converted)): > 20 µM; IC50 (CgBdf1 BD1 [3]; Fig 2C original data, analogs of 24, read-out: pIC50 CgBD1 (converted)): > 20 µM
CCOC(=N)c1ccc(C)cc1 [Compound 65]	0.0009452	1.47%	0.02836	0.001851	0.247%	0.003085	0.004991	0.421%	0.003431	0.007362	0.383%	0.0003067	
Cc1ccc(C(=N)NN)cc1 [Compound 66]	0.007561	2.32%	0.03875	0.003085	0.308%	0.003085	0.007798	0.717%	0.00655	0.005521	0.276%	0	
Cc1ccc(-c2nc(=O)c(C)n[nH]2)cc1 [Compound 67]	0.09956	16%	0.2253	0.002159	0.308%	0.00401	0.06082	11%	0.1541	0.007975	0.613%	0.004294	
Cc1ccc(-c2nnc(C)c(Cl)n2)cc1 [Compound 68]	0.003466	2.19%	0.04033	0.003085	0.355%	0.00401	0.004679	0.624%	0.007798	0.004601	0.23%	0	
CCNC(=O)C[C@@H]1N=C(c2ccc(Cl)cc2)c2cc(OC)ccc2-n2c(C)nnc21 [I-BET762]													%Growth ([1]; Fig 3E, 50 µM, WT BDF1-flag, Exp 1-3): 107% and 101%; %Growth ([6]; BDF1-hBD1-flag): 102% and 95% and 92%; %Growth ([6]; BDF1-hBD2-flag): 105% and 93% and 100%; %Growth ([6]; humanized BDF1-flag): 83%
CCNC(=O)C[C@@H]1N=C(c2ccc(Cl)cc2)c2cc(OC)ccc2-n2c(C)nnc21 [I-BET]													OD at 600 nm ([1]; WT BDF1 strain, Exp 1-3): 0.369 and 0.413 and 0.420; OD at 600 nm ([1]; bdf1-bd1Δ strain, Exp 1-3): 0.298 and 0.365 and 0.364; OD at 600 nm ([1]; bdf1-bd2Δ strain, Exp 1-3): 0.164 and 0.171 and 0.191
COc1ccccc1S(=O)(=O)Nc1ccc2c(c1)CN(C)C(=O)N2 [PFI-1, reference compound]													pIC50 CgBD2 (CgBdf1 BD2 [2]): * 4; pIC50 CgBD1 (CgBdf1 BD1 [3]): 4.63 and 4.61
COc1ccccc1S(=O)(=O)Nc1ccc2c(c1)CN(C)C(=O)N2 [PFI]													OD at 600 nm ([1]; WT BDF1 strain, Exp 1-3): 0.381 and 0.415 and 0.390; OD at 600 nm ([1]; bdf1-bd1Δ strain, Exp 1-3): 0.323 and 0.367 and 0.349; OD at 600 nm ([1]; bdf1-bd2Δ strain, Exp 1-3): 0.181 and 0.163 and 0.165
I-BET151 [reference compound]													pIC50 CgBD2 (CgBdf1 BD2 [2]; Fig 1D/2A original data, single experiments Exp1-3, listed as IBET-151): 6.30 and 6.21 and 6.31; pIC50 CgBD2 (CgBdf1 BD2 [2]; Fig 1D/2A original data, single experiments Exp1-3, listed as i-BET151): 6.297 and 6.205; pIC50 CgBD1 (CgBdf1 BD1 [3]; listed as IBET-151): 5.54 and 5.64 and 5.77; pIC50 CgBD1 (CgBdf1 BD1 [3]; listed as i-BET151): 5.772 and 5.641
